Results: US4835154A, “1-aralykyl-5-piperazinylmethyl-2-mercaptoimidazoles and 2-alkylthioimidazoles and their use as dopamine-βhydroxylase inhibitors” (SmithKline Beckman Corporation, priority 1987, dated 1989)

Tests used:
DBH [1] = target: T1, DBH (Homo sapiens, UniProt P09172); details: literature reports; cited from earlier work
T1 sequence (P09172 1-617): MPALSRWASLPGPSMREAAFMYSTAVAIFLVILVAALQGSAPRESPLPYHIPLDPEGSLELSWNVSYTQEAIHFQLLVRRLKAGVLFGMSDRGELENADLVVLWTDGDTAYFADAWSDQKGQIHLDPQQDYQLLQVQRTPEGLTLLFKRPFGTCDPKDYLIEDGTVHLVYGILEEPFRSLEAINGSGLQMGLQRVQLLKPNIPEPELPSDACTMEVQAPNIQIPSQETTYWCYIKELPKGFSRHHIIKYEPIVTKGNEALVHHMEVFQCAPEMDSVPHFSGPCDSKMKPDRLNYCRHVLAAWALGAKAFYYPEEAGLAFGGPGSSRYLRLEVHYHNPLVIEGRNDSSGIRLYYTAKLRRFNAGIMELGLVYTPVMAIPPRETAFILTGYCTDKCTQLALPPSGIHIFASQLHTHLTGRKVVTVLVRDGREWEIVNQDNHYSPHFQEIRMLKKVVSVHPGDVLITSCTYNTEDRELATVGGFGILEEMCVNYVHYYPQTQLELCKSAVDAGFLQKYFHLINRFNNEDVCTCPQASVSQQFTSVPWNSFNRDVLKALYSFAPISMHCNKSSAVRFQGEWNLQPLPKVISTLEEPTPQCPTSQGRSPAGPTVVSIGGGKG

[2] = Teresawa et al., 1971; cited from earlier work
[3] = Ehrreich et al., 1976; cited from earlier work
DBH [4] = target: T2, DBH (Bos taurus, UniProt P15101); test: in vitro DBH inhibition, conversion of tyramine to octopamine; format: biochemical; details: molar concentration of compound at which DBH activity was halved; octopamine assayed as p-hydroxybenzaldehyde at 330 nm
T2 sequence (P15101 1-610): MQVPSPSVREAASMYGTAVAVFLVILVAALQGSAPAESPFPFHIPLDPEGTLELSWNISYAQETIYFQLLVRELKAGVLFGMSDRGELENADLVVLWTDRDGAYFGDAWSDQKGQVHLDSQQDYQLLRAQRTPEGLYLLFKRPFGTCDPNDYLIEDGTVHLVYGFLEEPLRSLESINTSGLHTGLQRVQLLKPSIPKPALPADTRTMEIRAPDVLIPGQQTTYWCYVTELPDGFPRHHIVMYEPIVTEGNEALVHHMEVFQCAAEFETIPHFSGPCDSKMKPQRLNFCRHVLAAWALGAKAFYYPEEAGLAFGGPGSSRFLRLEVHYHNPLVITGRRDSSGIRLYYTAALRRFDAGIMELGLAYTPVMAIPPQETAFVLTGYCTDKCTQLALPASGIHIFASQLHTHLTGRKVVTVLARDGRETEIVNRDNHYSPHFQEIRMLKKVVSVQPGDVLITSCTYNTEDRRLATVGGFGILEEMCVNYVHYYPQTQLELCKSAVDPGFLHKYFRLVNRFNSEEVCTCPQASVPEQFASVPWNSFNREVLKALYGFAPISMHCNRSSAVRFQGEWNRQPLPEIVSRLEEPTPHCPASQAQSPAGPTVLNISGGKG
Protocol: Listed in Table I is the compound of the invention that was tested for in vitro DBH inhibition by a standard procedure for assaying conversion of tyramine to octopamine in the presence of DBH. J. J. Pisano, et al., Biochim. Biophys. Acta, 43, 566-568 (1960). Octopamine was assayed following sodium periodate oxidation to p-hydroxybenzaldehyde by measuring spectrophotometric absorbance at 330 nm. In Table I, inhibition is given in molar concentration of compound at which DBH activity was halved (IC50). Fusaric acid, by this test has an IC50 of 8×10^-7 M.

[5] = system: spontaneously hypertensive rats; test: mean arterial blood pressure in spontaneously hypertensive rats; format: in vivo; details: 50 mg/kg intraperitoneally, vs vehicle-treated controls
Protocol: Further, spontaneously hypertensive rats were treated with the compound in Table I at a dose of 50 mg/kg intraperitoneally, and mean arterial blood pressure was monitored for 260 minutes using indwelling cannulae in the tail arteries. […] The maximal blood pressure reduction was approximately 25 mmHg.

SMILES | DBH inhibition (in words) (DBH [1]) | also measured
NOCc1ccccc1 [Benzyloxyamine] | competitive inhibitors | –
O=C(O)c1ccc(CCCCCl)cn1 [5-(4-chlorobutyl) picolinic acid] | inhibit DBH | –
CCCCc1ccc(C(=O)O)nc1 [Fusaric acid] | – | hepatotoxicity [2]: hepatotoxic
CCCCc1ccc(C(N)=O)nc1 [Bupicomide, 5-(n-butyl)picolinamine] | DBH inhibitor | antihypertensive activity [3]: antihypertensive activity
O=C(O)c1ccc(CCC(Br)CBr)cn1 (stereo not drawn) [5-(3,4-dibromobutyl)picolinic acid] | DBH inhibitors | –
CN(C)C(=S)SCc1ccc(C(=O)O)nc1 [5-(dimethyldithiocarbamoylmethyl)picolinic acid] | DBH inhibitors | –
CN1CCN(Cc2cnc(S)n2Cc2cc(F)cc(F)c2)CC1 [Example 1, 1-(3,5-Difluorobenzyl)-5-[(4-methyl-1-piperazinyl)methyl]-2-mercaptoimidazole] | – | IC50 (DBH [4]): 590 µM; maximal blood pressure reduction ([5]; mean arterial blood pressure monitored for 260 minutes): approximately 25 mmHg; time to significant blood pressure reductions following treatment [5]: ≤ 30 min; blood pressure effect ([5]; within 30 minutes): significant blood pressure reductions
NNCc1ccccc1 [benzylhydrazine] | competitive inhibitors | –
